Patent publication US9265253B2, “Use of macrocyclic picolinamides as fungicides” (DOW AGROSCIENCES LLC, priority 2013, dated 2016)
Read-outs that look alike come from different tables or passages of the source.

Columns and labels:
[1] = test system: Mycosphaerella graminicola; Anamorph: Septoria tritici; assay: Leaf Blotch of Wheat (SEPTTR) disease control; type: in vivo; conditions: Zymoseptoria tritici; for pest or weed control at 100 ppm: rate 100 ppm; for pest or weed control at 121.5 g/ha: rate 121.5 g/H
Method in brief: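 Percent disease control is derived from Septoria tritici leaf blotch severity (0 to 100 percent) on treated versus untreated wheat seedlings. Plants get fungicide spray to run-off, with inoculation either preceding or following application, then humid incubation at 20° C.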

[2] = test system: Puccinia triticina; Synonym: Puccinia recondite f. Sp. Tritici; assay: Wheat Brown Rust (PUCCRT) disease control; type: in vivo; conditions: Puccinia triticina, topical; for pest or weed control at 100 ppm: rate 100 ppm; for pest or weed control at 121.5 g/ha: rate 121.5 g/H
Method in brief: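 Brown rust on first-leaf Yuma wheat: spore inoculation before or after spray application (acetone/Triton X-100 solution, or EC with Trycol in track spray), overnight 100% RH at 22 °C, disease developed at 24 °C. Severity scored 0–100% and converted to percent control against untreated.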

[3] = 24 h, 1 Day Protectant, read-out: SEPTTR 1 DP disease control
[4] = 72 h, 3 Day Curative, read-out: SEPTTR 3 DC disease control
[5] = 24 h, 1 Day Protectant, read-out: PUCCRT 1 DP disease control
[6] = 72 h, 3 Day Curative, read-out: PUCCRT 3 DC disease control

Row | Structure (SMILES) | pest or weed control at 100 ppm [1, 3] [%] | pest or weed control at 121.5 g/ha [1, 3] [%] | pest or weed control at 100 ppm [1, 4] [%] | pest or weed control at 121.5 g/ha [1, 4] [%] | pest or weed control at 100 ppm [2, 5] [%] | pest or weed control at 121.5 g/ha [2, 5] [%] | pest or weed control at 100 ppm [2, 6] [%] | pest or weed control at 121.5 g/ha [2, 6] [%]
1 | CCOCC(=O)OCOc1c(OC)ccnc1C(=O)N[C@H]1CCC[C@H](Cc2ccc(F)cc2)[C@@H](Oc2ccccc2)[C@H](C)OC1=O [Compound F165] | 80 to 100 | 80 to 100 | 80 to 100 | 80 to 100 | 80 to 100 | 80 to 100 | 80 to 100 | 0 to 80
2 | CCOCC(=O)OCOc1c(OC)ccnc1C(=O)N[C@H]1CCC[C@H](Cc2ccc(F)cc2)[C@@H](OCC(F)F)[C@H](C)OC1=O [Compound F169] | 80 to 100 | 80 to 100 | 0 to 80 | 80 to 100 | 80 to 100 | 80 to 100 | 80 to 100 | 80 to 100
3 | CCOCC(=O)OCOc1c(OC)ccnc1C(=O)N[C@H]1CCC[C@H](Cc2ccc(F)cc2)[C@@H](OC(=O)C2CCCC2)[C@H](C)OC1=O [Compound F170] | 80 to 100 | 80 to 100 | 80 to 100 | 80 to 100 | 80 to 100 | 80 to 100 | 80 to 100 | 0 to 80
4 | CCOCC(=O)OCOc1c(OC)ccnc1C(=O)N[C@H]1CCC[C@H](Cc2ccc(F)cc2)[C@@H](OC(=O)C(C)C)[C@H](C)OC1=O [Compound F171] | 80 to 100 | 80 to 100 | 80 to 100 | 80 to 100 | 80 to 100 | 80 to 100 | 80 to 100 | 0 to 80
5 | CCOCC(=O)OCOc1c(OC)ccnc1C(=O)N[C@H]1CCC[C@H](CC2CCCC2)[C@@H](Oc2ccccc2)[C@H](C)OC1=O [Compound F176] | 80 to 100 | 80 to 100 | 80 to 100 | 80 to 100 | 80 to 100 | 80 to 100 | 80 to 100 | 0 to 80
6 | CCOCC(=O)OCOc1c(OC)ccnc1C(=O)N[C@H]1CCC[C@H](Cc2ccc(OC)cc2)[C@@H](OCC2CC2)[C@H](C)OC1=O [Compound F177] | 80 to 100 | 80 to 100 | 80 to 100 | 80 to 100 | 80 to 100 | 80 to 100 | 80 to 100 | 80 to 100
7 | CCOCC(=O)OCOc1c(OC)ccnc1C(=O)N[C@H]1CCC[C@H](CC2CCCC2)[C@@H](OCC2CC2)[C@H](C)OC1=O [Compound F178] | 80 to 100 | 80 to 100 | 80 to 100 | 80 to 100 | 80 to 100 | 80 to 100 | 80 to 100 | 0 to 80
8 | CCOCC(=O)OCOc1c(OC)ccnc1C(=O)N[C@H]1CCC[C@H](Cc2ccc(OC)cc2)[C@@H](OCC(C)C)[C@H](C)OC1=O [Compound F179] | 80 to 100 | 80 to 100 | 80 to 100 | 80 to 100 | 80 to 100 | 80 to 100 | 80 to 100 | 0 to 80
9 | CCOCC(=O)OCOc1c(OC)ccnc1C(=O)N[C@H]1CCC[C@H](CCOc2ccccc2)[C@@H](Oc2ccccc2)[C@H](C)OC1=O [Compound F182] | 80 to 100 | 80 to 100 | 80 to 100 | 80 to 100 | 80 to 100 | 80 to 100 | 80 to 100 | 0 to 80
